{"source": "patent US20050130134A1", "about": "“Means and methods for monitoring non-nucleoside reverse transcriptase inhibitor antiretroviral therapy and guiding therapeutic decisions in the treatment HIV-AIDS” (ViroLogic, Inc., priority 2000, published 2005)", "key": {"[1]": {"system": "T66I integrase site-directed mutant", "test": "Phenotypic susceptibility assay, integrase T66I mutated resistance test vector", "type": "cell-based, HIV", "details": "T66I integrase mutant, FIG. 10", "method": "Transfections were performed using a calcium-phosphate precipitation procedure. […] Cell lysates were assayed for luciferase activity (FIG. 3). […] The drug inhibition curves are shown in (FIG. 3).\nA resistance test vector containing the threonine to isoleucine mutation at position 66 of the integrase protein (T66I) was constructed and tested using the phenotypic assay described earlier."}, "[2]": {"system": "RTV-268 patient virus (RT P236L with M41L, D67N, M184V, L210W, T215Y, K219Q)", "test": "Phenotypic susceptibility assay, RTV-268 (patient 97-268)", "type": "cell-based, HIV-1", "details": "RTV-268 patient virus compared to reference virus", "method": "Resistance tests were carried out with resistance test vectors using two host cell types. Resistance test vector viral particles were produced by a first host cell (the resistance test vector host cell) that was prepared by transfecting a packaging host cell with the resistance test vector and the packaging expression vector. The resistance test vector viral particles were then used to infect a second host cell (the target host cell) in which the expression of the indicator gene is measured.\nThe resistance test vectors containing a functional luciferase gene cassette were constructed and host cells were transfected with the resistance test vector DNA. The resistant test vectors contained patient-derived reverse transcriptase and protease sequences that were either susceptible or resistant to the antiretroviral agents, such as nucleoside reverse transcriptase inhibitors, non-nucleoside reverse transcriptase inhibitors and protease inhibitors. The resistance test vector viral particles produced by transfecting the resistance test vector DNA into host cells, either in the presence or absence of protease inhibitors, were used to infect target host cells grown either in the absence of NRTI or NNRTI or in the presence of increasing concentrations of the drug. The amount of luciferase activity produced in infected target host cells in the presence of drug was compared to the amount of luciferase produced in infected target host cells in the absence of drug. Drug resistance was measured as the amount of drug required to inhibit by 50% the luciferase activity detected in the absence of drug (inhibitory concentration 50%, IC50). The IC50 values were determined by plotting percent drug inhibition vs. log10 drug concentration.\nHost cells were seeded in 10-cm-diameter dishes and were transfected several days after plating with resistance test vector plasmid DNA and the envelope expression vector. Transfections were performed using a calcium-phosphate precipitation procedure. The cell culture media containing the DNA precipitate was replaced with fresh medium, from one to 24 hours, after transfection. Cell culture media containing resistance test vector viral particles was harvested one to four days after transfection and was passed through a […] filter before being stored at −80° C. HIV capsid protein (p24) levels in the harvested cell culture media were determined by an EIA method as described by the manufacturer (SIAC; Frederick, Md.). Before infection, target cells (293 and 293/T) were plated in cell culture media. Control infections were performed using cell culture media from mock transfections (no DNA) or transfections containing the resistance test vector plasmid DNA without the envelope expression plasmid. One to three or more days after infection the media was removed and cell lysis buffer (Promega) was added to each well. […] The inhibitory effect of the drug was determined using the following equation: % luciferase inhibition=1-(RLUluc[drug]÷RLUluc)×100 where RLUluc [drug] is the relative light unit of luciferase activity in infected cells in the presence of drug and RLUluc is the Relative Light Unit of luciferase activity in infected cells in the absence of drug. IC50 values were obtained from the sigmoidal curves that were generated from the data by plotting the percent inhibition of luciferase activity vs. the log10 drug concentration.\nA resistance test vector was constructed as described in Example 1 from a patient sample designated 97-268. […] Isolation of viral RNA and RT/PCR was used to generate a patient derived segment that comprised viral sequences coding for all of PR and amino acids 1-313 of RT. The patient derived segment was inserted into a indicator gene viral vector to generate a resistance test vector designated RTV-268."}, "[3]": {"system": "Tyr181Cys (Y181C) mutation of HIV RT", "details": "cited from earlier work"}}}
{"smiles": "O=C(O)C(=O)CC(=O)c1cccn1Cc1ccc(F)cc1", "note": "[L-731,988]", "values": [{"measurement": "reduction in susceptibility compared to wild type control RTV", "setting": "[1]", "value": 4.7, "unit": "fold"}]}
{"smiles": "Cc1cn([C@H]2C[C@H](N=[N+]=[N-])[C@@H](CO)O2)c(=O)[nH]c1=O", "note": "[AZT]", "values": [{"measurement": "change in susceptibility / resistance", "setting": "[2]", "value": "significant resistance"}]}
{"smiles": "CCc1cc(NCc2nc3c(Cl)ccc(Cl)c3o2)c(O)nc1C", "note": "[L-697,661]", "values": [{"measurement": "change in susceptibility", "setting": "[3]", "value": "reduced susceptibility"}]}
{"smiles": "Nc1ccn([C@@H]2CS[C@H](CO)O2)c(=O)n1", "note": "[3TC]", "values": [{"measurement": "change in susceptibility / resistance", "setting": "[2]", "value": "significant resistance"}]}
{"smiles": "Nc1ccn([C@H]2CC[C@@H](CO)O2)c(=O)n1", "note": "[ddC]", "values": [{"measurement": "change in susceptibility / resistance", "setting": "[2]", "value": "slight shifts in susceptibility"}]}
{"smiles": "Cc1cn([C@H]2C=C[C@@H](CO)O2)c(=O)[nH]c1=O", "note": "[d4T]", "values": [{"measurement": "change in susceptibility / resistance", "setting": "[2]", "value": "slight shifts in susceptibility"}]}
{"smiles": "CCc1cc(CCc2nc3ccccc3o2)c(=O)[nH]c1C", "note": "[L-696,229]", "values": [{"measurement": "change in susceptibility", "setting": "[3]", "value": "reduced susceptibility"}]}
{"smiles": "O=c1[nH]cnc2c1ncn2[C@H]1CC[C@@H](CO)O1", "note": "[ddI]", "values": [{"measurement": "change in susceptibility / resistance", "setting": "[2]", "value": "slight shifts in susceptibility"}]}
